According to patent US12653190B2, “Heteroaryl-triazole compounds as pesticides” (Bayer Aktiengesellschaft, priority 2020, dated 2026):

Assays:
Format in all cases: in vivo
[1] = system: adult mosquitoes Aedes aegypti strain MONHEIM; assay: Aedes aegypti test (AEDSAE surface treatment & contact assay); details: 24 hours after contact, read-out: efficacy (mortality)
Method: Aedes aegypti Test (AEDSAE Surface Treatment & Contact Assay)
(§1) • Solvent: Aceton+2000 ppm rapeseed oil methyl ester (RME)
(§2) In order to produce a sufficient, active ingredient containing solution it is necessary to solve the test compound in the solvent-mix (acetone at 2 mg/ml/RME 2000 ppm). This solution is pipetted onto a glazed tile and after evaporation of the acetone, adult mosquitoes of the species Aedes aegypti strain MONHEIM are placed onto the dried surface. The exposure time is 30 minutes.
(§3) Mortality in percent (%) is determined 24 hours after contact of the insects to the treated surface. 100% mortality means that all tested insects are dead, whereas 0% means that no insect died.

[2] = system: adult flies Musca domestica strain WHO-N; assay: Musca domestica test (MUSCDO surface treatment & contact assay); details: 24 hours after contact, read-out: efficacy (mortality)
Method: Musca domestica Test (MUSCDO Surface Treatment & Contact Assay)
as §1
as §2, with “flies” for “mosquitoes”, “Musca domestica” for “Aedes aegypti”, “WHO-N” for “MONHEIM”
as §3

[3] = system: green peach aphid (Myzus persicae); assay: Myzus persicae spray test; details: foliar, 120 h, after 5 days, Chinese cabbage leaf disks
Method: Myzus persicae—Spray Test
(§4) • Solvent: 78.0 parts by weight acetone • 1.5 parts by weight dimethylformamide • Emulsifier: alkylarylpolyglycol ether
(§5) To produce a suitable preparation of active compound, 1 part by weight of active compound is mixed with the stated amount of solvents and is diluted with water, containing an emulsifier concentration of 1000 ppm, to the desired concentration. Further test concentrations are prepared by dilution with emulsifier containing water.
Chinese cabbage (Brassica pekinensis) leaf disks infected with all instars of the green peach aphid (Myzus persicae), are sprayed with a preparation of the active ingredient of the desired concentration.
After 5 days mortality in % is determined. 100% means all aphids have been killed and 0% means none of the aphids have been killed.

[4] = system: adult mosquitoes Culex quinquefasciatus strain P00; assay: Culex quinquefasciatus test (CULXFA surface treatment & contact assay); details: 24 hours after contact, read-out: efficacy (mortality); for mortality at 20 mg/m2: surface concentration 20 mg/m^2, 30 minutes exposure
Method: Culex quinquefasciatus Test (CULXFA Surface Treatment & Contact Assay)
as §1
as §2, with “2 000” for “2000”, “Culex Quinquefasciatus” for “Aedes aegypti”, “P00” for “MONHEIM”, “minutes. Mortality in percent (%) is determined 24 hours after contact of the insects to the treated surface. 100% mortality means that all tested insects are dead, whereas 0% means that no insect died.” for “minutes.”

[5] = system: fall armyworm larvae (Spodoptera frugiperda); assay: Spodoptera frugiperda spray test; details: in Zea mays, 168 h
Method: Spodoptera frugiperda—Spray Test
as §4, §5
Maize (Zea mays) leaf sections are sprayed with a preparation of the active ingredient of the desired concentration. Once dry, the leaf sections are infested with fall armyworm larvae (Spodoptera frugiperda). After 7 days mortality in % is determined. 100% means all caterpillars have been killed and 0% means none of the caterpillars have been killed.

[6] = system: larvae of the banded cucumber beetle (Diabrotica balteata); assay: Diabrotica balteata spray test; details: 168 h, 100 g/ha (=32 μg/well), after 7 days, wheat seeds, read-out: efficacy (seedling growth)
Method: Diabrotica balteata—Spray Test
(§6) • Solvent: 78.0 parts by weight of acetone • 1.5 parts by weight of dimethylformamide • Emulsifier: alkylarylpolyglycol ether
as §5, with “solvent,” for “solvents”, “and the concentrate” for “and”
Soaked wheat seeds (Triticum aestivum) are placed in a multiple well plate filled with agar and some water and are incubated for 1 day to germinate (5 seeds per well). The germinated wheat seeds are sprayed with a test solution containing the desired concentration of the active ingredient. Afterwards each unit is infected with 10-20 larvae of the banded cucumber beetle (Diabrotica balteata).
After 7 days efficacy in % is determined. 100% means all the seedlings have grown up like in the untreated, uninfected control; 0% means none of the seedlings have grown.

[7] = system: larvae of the southern green stink bug (Nezara viridula); assay: Nezara viridula spray test; details: 96 h, after 4 days, barley plants
Method: Nezara viridula—Spray Test
as §6
as §5, with “solvent,” for “solvents”, “and the concentrate” for “and”
Barley plants (Hordeum vulgare) are sprayed with a test solution containing the desired concentration of the active ingredient and are infested with larvae of the southern green stink bug (Nezara viridula).
After 4 days mortality in % is determined. 100% means all the stink bugs have been killed; 0% means none of the stink bugs have been killed.

[8] = system: Rhipicephalus (Boophilus) microplus larvae (strain Parkhurst, resistant against synthetic pyrethroids); assay: Rhipicephalus (Boophilus) microplus in-vitro contact test, larval cattle tick; details: 5 μg/cm^2 (=500 g/ha), after 48 hours, read-out: efficacy (larvae dead or moribund)
Method: Rhipicephalus (Boophilus) microplus—In-Vitro Contact Tests Larval Cattle Tick (Strain Parkhurst, Resistant Against Synthetic Pyrethroids)
9 mg compound is solved in 1 mL acetone and diluted with acetone to the desired concentration. 250 μL of the test solution is filled in 25 mL glass test tubes and homogeneously distributed on the inner walls by rotation and tilting on a shaking device (2 h at 30 rpm). With a compound concentration of 900 ppm, an inner surface of 44.7 cm^2 and a homogeneous distribution, a dose of 5 μg/cm^2 is achieved.
After the solvent has evaporated, each test tube is filled with 20-50 cattle tick larvae (Rhipicephalus microplus), closed with a perforated lid and incubated in a horizontal position at 85% relative humidity and 27° C. in an incubator. After 48 hours efficacy is determined. The larvae are patted on the ground of the tubes and negative geotactic behavior is recorded.
An efficacy of 100% means all larvae are dead or moribund; 0% means no larvae are dead or moribund.

[9] = system: adult engorged female ticks (Rhipicephalus microplus); assay: Rhipicephalus (Boophilus) microplus injection test; details: 168 h, egg deposition monitored after 7 days, read-out: efficacy (infertile eggs)
Method: Rhipicephalus (Boophilus) microplus—Iniectiontest
(§7) • Solvent: dimethyl sulfoxide
To produce a suitable preparation of active compound, 10 mg of active compound are dissolved in 0.5 mL solvent, and the concentrate is diluted with solvent to the desired concentration.
Five adult engorged female ticks (Rhipicephalus microplus) are injected with 1 μL compound solution into the abdomen. The ticks are transferred into replica plates and incubated in a climate chamber.
After 7 days egg deposition of fertile eggs is monitored. Eggs where fertility is not visible are stored in a climate chamber till hatching after about 42 days. An efficacy of 100% means all eggs are infertile; 0% means all eggs are fertile.

[10] = system: adult unfed cat fleas (Ctenocephalides felis); assay: Ctenocephalides felis oral test; details: 48 h, 100 ppm in cattle blood, after 2 days
Method: Ctenocephalides felis—Oral Test
as §7
To produce a suitable preparation of active compound, 10 mg of active compound are dissolved in 0.5 mL solvent, and the concentrate is diluted with cattle blood to the desired concentration.
Approximately 20 adult unfed cat fleas (Ctenocephalides felts) are placed in flea chambers. The blood chamber, sealed with parafilm on the bottom, are filled with cattle blood supplied with compound solution and placed on the gauze covered top of the flea chamber, so that the fleas are able to suck the blood. The blood chamber is heated to 37° C. whereas the flea chamber is kept at room temperature.
After 2 days mortality in % is determined. 100% means all the fleas have been killed; 0% means none of the fleas have been killed.

[11] = surface concentration 4 mg/m^2, 30 minutes exposure
[12] = surface concentration 20 mg/m^2, 30 minutes exposure

| SMILES | mortality at 100 g/ha [3] | mortality at 100 g/ha [5] | pest or weed control at 32 µg/disc, 100 g/ha [6] | mortality at 500 g/ha [7] | pest or weed control at 5 µg/cm2, 5 µg/cm2 [8] | further results |
| --- | --- | --- | --- | --- | --- | --- |
| C[C@H](NC(=O)c1cc(OC(F)(F)F)cc(C(C)(C)C#N)c1)c1ncnn1-c1ncc(C#N)s1 [Example I-43, 3-(1-Cyano-1-methyl-ethyl)-N-[(1S)-1-[2-(5-cyanothiazol-2-yl)-1,2,4-triazol-3-yl]ethyl]-5-(trifluoromethoxy)benzamide] | 100% | 100% | 100% | 100% | – | mortality at 4 mg/m2 [1, 11]: 80 to 100%; mortality at 20 mg/m2 [1, 12]: 80 to 100%; mortality at 4 mg/m2 [2, 11]: 80 to 100%; mortality at 20 mg/m2 [2, 12]: 80 to 100%; mortality at 4 mg/m2 [4, 11]: 80 to 100%; mortality at 20 mg/m2 [4]: 80 to 100%; mortality at 100 g/ha [7]: 100% |
| C[C@H](NC(=O)c1cc(Cl)cc(C(C)(C)C#N)c1)c1ncnn1-c1ncc(C#N)s1 [Example I-37] | 90% | 100% | 100% | 100% | – | mortality at 20 mg/m2 [4]: 80 to 100% |
| C[C@H](NC(=O)c1cc(CC#N)cc(OC(F)(F)F)c1)c1ncnn1-c1ncc(C#N)s1 [Example I-54] | – | 100% | – | – | 90% | – |
| CNC(=O)c1cnc(-n2ncnc2[C@H](C)NC(=O)c2cc(OC(F)(F)F)cc(C(C)(C)C#N)c2)s1 [Example I-74] | 100% | 100% | 100% | 100% | – | mortality at 100 g/ha [7]: 100% |
| C[C@H](NC(=O)c1cc(OC(F)(F)F)cc(C(C)(C)C#N)c1)c1ncnn1-c1ncc(C(=O)N(C)C)s1 [Example I-73] | 100% | 100% | 100% | 100% | – | – |
| C[C@H](NC(=O)c1cc(OCC=C(Cl)Cl)cc(C(F)(F)F)c1)c1ncnn1-c1ccc(C#N)cn1 [Example I-26] | – | – | 100% | – | 100% | – |
| CC(C)c1cc(C(=O)N[C@@H](C)c2ncnn2-c2ccc(C#N)cn2)cc(C(C)(C)C#N)c1 [Example I-48] | – | 83% | 100% | – | 100% | – |
| C[C@H](NC(=O)c1cc(Cl)cc(Oc2ccc(Cl)cc2)c1)c1ncnn1-c1ccc(C#N)cn1 [Example I-8] | – | – | – | – | – | pest or weed control at 4 µg/tick ([9]; 4 μg/tick injected): 80%; pest or weed control at 20 µg/tick ([9]; 20 μg/tick injected): 100%; mortality at 100 ppm [10]: 90% |
| C[C@H](NC(=O)c1cc(OC2CC2)cc(OC(F)(F)F)c1)c1nc(C2CC2)nn1-c1ncc(C#N)s1 [Example I-65] | – | – | – | – | 100% | – |
